Test results taken from PMC12442099 (ACS Infectious Diseases, 2025).
Converted amounts (≈) assume the structure as drawn.

What was measured:
[1] = tested on: Rcs cell envelope stress response in Escherichia coli; assay: Rcs stress reporter assay, HTS format, dose-response curves; type: cell-based; settings: for Emax: read-out: Max. effect (%); for EC50: read-out: pEC50 (converted)
Description: We adapted the reporter assay based on the Rcs stress system for HTS in a screening program at the ELF as the first bacterial phenotypic screen used in this setting. , The assay was performed in a 1536-well format using 25 μM PMBN as a reference (set at 100% effect).
The ELF screened their extensive and diverse library consisting of >500,000 small molecules at a concentration of 10 μM. The assay window (S/B) and Z’ values remained stable (2.0–15.2 and 0.50–0.90, respectively) throughout the screening campaign. The detailed standard screening procedure of the ELF is outlined elsewhere. An overview of the selection process of the screening campaign performed here is outlined in Figure . Initially, 340 compounds with an effect ≥20% of the reference compound PMBN were considered biologically active. Usually, up to 1% of the input library is selected for confirmatory, dose–response, orthogonal and deselection assays. Because the number of biological actives identified in this assay was well below the 1% limit, no orthogonal assays were performed. Instead, all compounds were reordered and tested as dilution series in the Rcs assay to generate dose–response curves (DRCs). Each compound’s pEC50 (−log of EC50, defined as the concentration (mol/L) at which 50% effect is achieved) was determined, and compounds with a pEC50 ≥ 4.7 were selected for further analysis. Next, the compounds were subjected to a mammalian cell-based cytotoxicity assay to exclude toxic compounds that may have a generic effect on membrane integrity. Compounds that reduced mammalian cell viability by 50% were considered cytotoxic. The qualified hit list (QHL) was then generated following triaging based on LC-MS analysis and pEC50 values.
Overnight cultures (ONCs) were prepared by inoculating 5 mL medium from glycerol stocks and incubating the culture for 16–18 h. ONCs were then diluted to an OD600 of 0.05 and grown until an OD600 of 0.3–0.4 was reached.
Assay robustness was confirmed by testing its sensitivity to assay-interfering agents, including colored, aggregating and fluorescent compounds. […] For HTS, bacteria were diluted 50x in prewarmed medium. Fifteen nL of assay compounds (10 μM), DMSO (0.25%), or the reference compound polymyxin B nonapeptide (PMBN) at 25 μM were added to 1536 well plates. Next, 6 μL culture aliquots were added to assay plates containing compounds. Plates were briefly centrifuged for 1 min at 150 x g. Plates were incubated at 37 °C with high humidity and fluorescence (Ex./Em. λ: 485/528 nm) was measured at T = 0 and T = 150 min using a ClarioStar plate reader (BMG Labtech). For data analysis, T = 0 values were subtracted from T = 150 values to calculate Z-score and % effect compared to the reference compound.
Dose–response curves of the 340 initial active compounds were determined following the preparation of serial dilutions (20 nM–20 μM; 7 points, √10). The % effect compared to the reference compound PMBN was calculated and plotted for each compound dilution. The resulting plots were used to calculate pEC50 (-log(EC50), with EC50 being determined as the concentration at which a 50% effect is observed).

A. baumanni 9955 = assay: MIC broth microdilution; type: cell-based; settings: Acinetobacter baumannii, clinical isolate, CAMHB, median of triplicates, read-out: MIC (μg/mL) A. baumanni 9955
Description: (§1) The antibacterial activity of the compounds was determined by measuring their minimum inhibitory concentration (MIC) values using the broth microdilution method according to the Clinical and Laboratory Standards Institute guidelines (CLSI). Briefly, a single colony from blood agar plates was inoculated into cation-adjusted Mueller-Hinton broth (CAMHB) and grown to OD600 = 0.5. Next, 10^6 CFU/mL were added to a 2-fold serial dilution series of test compounds and incubated at 37 °C, 600 rpm overnight (18–20 h for Gram-negative strains, 20–24 h for Gram-positive strains), after which the plates were visually inspected for bacterial growth. MICs are reported as the median of triplicates.

E. coli 25922 = assay: MIC broth microdilution; type: cell-based; settings: Escherichia coli, CAMHB, median of triplicates, read-out: MIC (μg/mL) E. coli 25922
Description: as §1

E. coli BW25113 = assay: MIC broth microdilution; type: cell-based; settings: Escherichia coli, CAMHB, median of triplicates, read-out: MIC (μg/mL) E. coli BW25113
Description: as §1

E. coli TOP10F’ = assay: MIC broth microdilution; type: cell-based; settings: Escherichia coli; screening strain; CAMHB, median of triplicates; read-out: MIC (μg/mL) E. coli TOP10F’
Description: as §1

K. pneumoniae 13883 = assay: MIC broth microdilution; type: cell-based; settings: Klebsiella pneumoniae, clinical isolate, CAMHB, median of triplicates, read-out: MIC (μg/mL) K. pneumoniae 13883
Description: as §1

P. aeruginosa 27853 = assay: MIC broth microdilution; type: cell-based; settings: Pseudomonas aeruginosa, clinical isolate, CAMHB, median of triplicates, read-out: MIC (μg/mL) P. aeruginosa 27853
Description: as §1

S. aureus USA 300 = assay: MIC broth microdilution; type: cell-based; settings: Staphylococcus aureus, USA300; clinical isolate; CAMHB, median of triplicates; read-out: MIC (μg/mL) S. aureus USA 300
Description: as §1

E. coli TOP10F' = assay: Growth inhibition after 7 hours (EC80/EC50); settings: Escherichia coli, 7 h; for EC50: read-out: EC50 TOP10F'; for IC80: read-out: EC80 TOP10F'
E. coli MC4100 = assay: Growth inhibition after 7 hours (EC80/EC50); settings: Escherichia coli, MC4100, 7 h; for EC50: read-out: EC50 MC4100; for IC80: read-out: EC80 MC4100
[2] = tested on: Rcs stress response in E. coli TOP10F’; assay: Rcs stress kinetics reporter assay; type: cell-based
Description: Stress was measured in real-time during 10 h following compound treatment by normalizing the fluorescence intensity for growth as indicated by the optical density at 600 nm (OD600) of the culture.
3 Bacterial stress responses of different compound classes as shown in panel (A). (B) Rcs, (C) σE, (D) Cpx, and (E) heat shock. Graphs show fold change in fluorescence normalized for OD600 at EC80 compound concentrations over the course of 10h. Fold change values were determined by comparing OD600‑normalized fluorescence of compound-treated samples to DMSO treated samples. PMBN is used as a CE stress-inducing control at 25 μg/mL, which is the concentration used as a control during the screening campaign. Chloramphenicol at 1 μg/mL is used as a non-stress-inducing antibiotic control. Error bars indicate standard deviation of the average of triplicate samples from at least two independent experiments. (F) Overview of the different stress responses based on the compound class.
(§2) For lower throughput analysis under laboratory conditions, cultures grown to OD600 of 0.3–0.4 were diluted to a final concnetration of 0.05 OD600 units/mL in black, clear-bottom 96-well plates (Greiner Bio-One B.V.). Plates were incubated in a Biotek HTX or H1 plate reader (Agilent Technologies) at 37 °C with continuous shaking. Kinetic studies were performed by measuring OD600 and fluorescence (Ex./Em. Λ: 485/528 nm) every 20 min for 10h. For end point measurements, fluorescence was measured at T = 0 and once more at T = 150 min.

[3] = tested on: SOS stress response in E. coli MC4100; assay: SOS stress reporter assay (PlexA-mNG); type: cell-based; settings: EC80 compound concentrations (Fig. 5A); Fig. S4
From the text: To examine the potential link between DNA gyrase inhibition, SOS stress, and CE stress, we designed a fluorescent SOS reporter plasmid, similar to the reporter plasmids used to study CE stresses.
5 (A) SOS stress induced by different compounds at EC80 concentrations in E. coli MC4100. (B) Rcs stress of different compounds at EC80 concentrations in E. coli MC4100. (C) Rcs stress of the nonquinolone gyrase inhibitor LEI-800 in TOP10F’. (D) Rcs stress induced by mitomycin C in E. coli TOP10F’ and E. coli MC4100. Graphs show fold change in fluorescence adjusted for bacterial growth (OD600). Error bars indicate standard deviation of triplicates. Data are representative of two independent experiments with similar results.

[4] = tested on: Rcs stress response in E. coli MC4100 (WT, FQR, GEPR); assay: Rcs stress reporter assay in MC4100 wildtype and resistant mutants; type: cell-based; settings: EC80 concentrations
From the text: Serial passaging of E. coli MC4100 in the presence of increasing concentrations of lomefloxacin or gepotidacin yielded resistant variants of E. coli MC4100. We used MC4100 to raise resistance, because unlike the screening strain TOP10F’, this strain has a functional SOS stress response, which has been implicated in developing resistance against quinolones. Compounds also elicited a robust Rcs stress response in E. coli MC4100, allowing for this strain to be used for stress assays.
4 Rcs stress induced by EC80 concentrations of (A) lomefloxacin, (B) gepotidacin, (C) A2, and (D) B1 in wildtype (WT), fluoroquinolone resistant (FQR) or gepotidacin resistant (GEPR) bacteria. Graphs show the fold change in fluorescence adjusted for bacterial growth as determined by OD600. Error bars indicate the standard deviation of triplicate samples. Data are representative of three independent experiments with similar results. […]
as §2

Structure (SMILES)	Emax [1]	EC50 [1]	MIC (A. baumanni 9955)	MIC (E. coli 25922)	MIC (E. coli BW25113)	MIC (E. coli TOP10F’)	MIC (K. pneumoniae 13883)	MIC (P. aeruginosa 27853)	MIC (S. aureus USA 300)	EC50 (E. coli TOP10F')	IC80 (E. coli TOP10F')	EC50 (E. coli MC4100)	IC80 (E. coli MC4100)	induction of stress response systems (Rcs, σE, Cpx, heat shock) ([2]; chloramphenicol 1 μg/mL, negative control)	Rcs stress induction in SOS-deficient TOP10F’ ([2]; fold change fluorescence/OD600)	SOS stress induction in MC4100 [3]	Rcs stress induction in MC4100 wildtype [4]
Cc1cc(-c2c(F)cc3c(=O)c(C(=O)O)cn(CCF)c3c2F)cc(C)n1 [A1]	26.1%	0.955 µM	1 µg/mL (≈ 2.66 µM)	0.5 µg/mL (≈ 1.33 µM)	0.25 µg/mL (≈ 0.664 µM)	< 0.03 µg/mL	1 µg/mL (≈ 2.66 µM)	16 µg/mL (≈ 42.5 µM)	1 µg/mL (≈ 2.66 µM)	0.016 µg/mL (≈ 0.0425 µM)	0.063 µg/mL (≈ 0.167 µM)	0.5 µg/mL (≈ 1.33 µM)	2 µg/mL (≈ 5.31 µM)	–	–	–	–
CCc1cc(-c2c(F)cc3c(=O)c(C(=O)O)cn4c3c2OC[C@@H]4C)cc(C)n1 [A3]	18.6%	0.191 µM	0.5 µg/mL (≈ 1.31 µM)	0.125 µg/mL (≈ 0.327 µM)	0.125 µg/mL (≈ 0.327 µM)	< 0.03 µg/mL	1 µg/mL (≈ 2.62 µM)	8 µg/mL (≈ 20.9 µM)	0.5 µg/mL (≈ 1.31 µM)	0.0078 µg/mL (≈ 0.0204 µM)	0.031 µg/mL (≈ 0.0811 µM)	0.25 µg/mL (≈ 0.654 µM)	1 µg/mL (≈ 2.62 µM)	–	–	–	–
CNn1cc(C(=O)O)c(=O)c2cc(F)c(N3CCN(C(C)C)CC3)cc21 [A4]	20.8%	0.214 µM	2 µg/mL (≈ 5.52 µM)	0.25 µg/mL (≈ 0.69 µM)	0.25 µg/mL (≈ 0.69 µM)	0.125 µg/mL (≈ 0.345 µM)	0.5 µg/mL (≈ 1.38 µM)	16 µg/mL (≈ 44.1 µM)	64 µg/mL (≈ 177 µM)	2 µg/mL (≈ 5.52 µM)	4 µg/mL (≈ 11 µM)	0.25 µg/mL (≈ 0.69 µM)	1 µg/mL (≈ 2.76 µM)	–	–	–	–
COC1CN(CCn2c(=O)ccc3ncc(F)cc32)CCC1NCc1cc(F)c2c(c1)NC(=O)CO2 (stereo not drawn) [B2]	53.2%	0.631 µM	1 µg/mL (≈ 2 µM)	2 µg/mL (≈ 4 µM)	1 µg/mL (≈ 2 µM)	0.06 µg/mL (≈ 0.12 µM)	4 µg/mL (≈ 8.01 µM)	8 µg/mL (≈ 16 µM)	0.25 µg/mL (≈ 0.5 µM)	< 0.063 µg/mL	2 µg/mL (≈ 4 µM)	2 µg/mL (≈ 4 µM)	16 µg/mL (≈ 32 µM)	–	–	–	–
Cc1ncc(CNC2CCN(CCn3c(=O)ccc4ncc(OCc5ccnn5C)cc43)CC2)cc1Cl [B3]	37.9%	5.62 µM	8 µg/mL (≈ 15.3 µM)	16 µg/mL (≈ 30.6 µM)	16 µg/mL (≈ 30.6 µM)	2 µg/mL (≈ 3.83 µM)	64 µg/mL (≈ 123 µM)	> 64 µg/mL	0.125 µg/mL (≈ 0.239 µM)	0.016 µg/mL (≈ 0.0306 µM)	1 µg/mL (≈ 1.92 µM)	2 µg/mL (≈ 3.83 µM)	> 16 µg/mL	–	–	–	–
O=C(N[C@H](CO)[C@H](O)c1ccc([N+](=O)[O-])cc1)C(Cl)Cl [Chloramphenicol]	–	–	–	–	–	–	–	–	–	–	–	–	–	did not induce any of the stress response systems tested	–	–	–
O=S(=O)(NC[C@@H]1CC[C@H](c2ccc(-c3cccnc3)cc2)N1)c1cccc2cnccc12 [LEI-800, reference compound]	–	–	–	–	–	–	–	–	–	1 µg/mL (≈ 2.25 µM)	8 µg/mL (≈ 18 µM)	2 µg/mL (≈ 4.5 µM)	8 µg/mL (≈ 18 µM)	–	induced high levels of Rcs stress similar to CluB compounds	did not induce strong fluorescence	Neither compound induced Rcs stress
CN(C)c1ccc(-c2nc(Cl)nc3cccnc23)cc1 [S2]	87.9%	7.76 µM	–	–	–	–	–	–	–	–	–	–	–	–	–	–	–
